Literature values as cited in US6899896B2, “Hydrogel-driven layered drug dosage form” (Pfizer Inc, priority 1999, dated 2005).
Read-outs that look alike come from different tables or passages of the source.

- solubility of sertraline (pH 2.0): 6 mgA/mL
- solubility of sertraline (pH 6.5): about 1 mgA/mL
- solubility of sertraline (pH about 7.0): about 0.2 mgA/mL
- solubility of sertraline (pH about 7.5): about 0.05 mgA/mL
SMILES: CN[C@H]1CC[C@@H](c2ccc(Cl)c(Cl)c2)c2ccccc21 [Sertraline, (1S-cis)-4-(3,4-dichlorophenyl)-1,2,3,4-tetrahydro-N-methyl-1-naphthalenamine]
